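Step 1: Grow cells in 96-well plates. Step 2: Expose to compound for 48 hours at 5 concentrations. Step 3: Interpolate endpoints linearly; if unreached, use highest concentration. GI50 is the concentration that inhibits growth by half.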 Calls of active or inactive are those of the source. No stated cut-off is given here; in the data, active = GI50 up to about 1.1 µM and inactive = higher.
Assays:
Experiment in all cases: inhibition of tumour cell growth, NCI panel, 48 h
HCT-15 = test system: HCT-15
HL-60 = test system: HL-60
HOP-92 = test system: HOP-92
SNB-19 = test system: SNB-19
786-0 = test system: 786-0
MDA-N = test system: MDA-N
IGROV-1 = test system: IGROV-1
SF-268 = test system: SF-268
HOP-62 = test system: HOP-62
DU-145 = test system: DU-145
NCI/ADR-RES = test system: NCI/ADR-RES
HT-29 = test system: HT-29
NCI-H23 = test system: NCI-H23
CAKI-1 = test system: CAKI-1
LOX IMVI = test system: LOX IMVI
K562 = test system: K562
NCI-H226 = test system: NCI-H226
SK-MEL-28 = test system: SK-MEL-28
KM12 = test system: KM12
COLO 205 = test system: COLO 205

C=Cc1cc(OC)c2c(c1)c(=O)oc1c2cc(OC)c2c(O)ccc(C3OC(C)C(O)C(C)(O)C3O)c21 (stereo not given)
GI50 (HCT-15): 48.9 nM | GI50 (HL-60): 22.5 nM (active) | GI50 (HOP-92): 41 nM (active) | GI50 (SNB-19): 37.2 nM (active) | GI50 (786-0): 0.348 nM (active) | GI50 (MDA-N): 1.71 nM (active) | GI50 (IGROV-1): 40.3 nM (active) | GI50 (SF-268): 23.7 nM (active) | GI50 (HOP-62): 22.5 nM (active) | GI50 (DU-145): 0.296 nM (active) | GI50 (NCI/ADR-RES): 34.4 nM (active) | GI50 (HT-29): 34.1 nM (active) | GI50 (NCI-H23): 23.7 nM (active) | GI50 (CAKI-1): 46.2 nM (active) | GI50 (LOX IMVI): 22.5 nM (active) | GI50 (K562): 30.6 nM (active)

Cc1cc(NC(=O)NC(=O)c2ccccc2NC(=O)CN)ccc1Oc1ncc(Br)cn1
GI50 (HCT-15): 1410 nM | GI50 (HOP-92): 3600 nM (inactive) | GI50 (NCI-H226): 1180 nM (inactive) | GI50 (SNB-19): 929 nM (active) | GI50 (SK-MEL-28): 859 nM (active) | GI50 (786-0): 502 nM (active) | GI50 (MDA-N): 105 nM (active) | GI50 (IGROV-1): 847 nM (active) | GI50 (KM12): 401 nM (active) | GI50 (SF-268): 1550 nM (inactive) | GI50 (COLO 205): 249 nM (active) | GI50 (HOP-62): 215 nM (active) | GI50 (DU-145): 402 nM (active) | GI50 (NCI/ADR-RES): 130 nM (active) | GI50 (HT-29): 299 nM (active) | GI50 (NCI-H23): 740 nM (active) | GI50 (CAKI-1): 62.7 nM (active) | GI50 (LOX IMVI): 971 nM (active) | GI50 (K562): 419 nM (active)

CCN(CC)C(=O)COc1cc2c(O)c3c(O)c(C)c4c(c13)C(=O)C(C)(OC=CC(OC)C(C)C(OC(C)=O)C(C)C(O)C(C)C(O)C(C)C=CC=C(C)C(=O)N2)O4 (stereo not given)
GI50 (HCT-15): > 100000 nM | GI50 (HOP-92): > 100000 nM (inactive) | GI50 (NCI-H226): > 100000 nM (inactive) | GI50 (SNB-19): > 100000 nM (inactive) | GI50 (SK-MEL-28): > 100000 nM (inactive) | GI50 (786-0): > 100000 nM (inactive) | GI50 (MDA-N): > 100000 nM (inactive) | GI50 (IGROV-1): > 100000 nM (inactive) | GI50 (KM12): > 100000 nM (inactive) | GI50 (SF-268): > 100000 nM (inactive) | GI50 (HOP-62): > 100000 nM (inactive) | GI50 (DU-145): > 100000 nM (inactive) | GI50 (NCI/ADR-RES): > 100000 nM (inactive) | GI50 (HT-29): > 100000 nM (inactive) | GI50 (NCI-H23): > 100000 nM (inactive) | GI50 (CAKI-1): > 100000 nM (inactive) | GI50 (LOX IMVI): > 100000 nM (inactive) | GI50 (K562): > 100000 nM (inactive)

COC(=O)C#CC1(O)C=CC(=O)C=C1
GI50 (HCT-15): 248 nM | GI50 (HOP-92): 891 nM (active) | GI50 (NCI-H226): 5070 nM (inactive) | GI50 (SNB-19): 4630 nM (inactive) | GI50 (SK-MEL-28): 579 nM (active) | GI50 (786-0): 483 nM (active) | GI50 (MDA-N): 1180 nM (inactive) | GI50 (IGROV-1): 508 nM (active) | GI50 (KM12): 843 nM (active) | GI50 (SF-268): 664 nM (active) | GI50 (COLO 205): 2410 nM (inactive) | GI50 (HOP-62): 4720 nM (inactive) | GI50 (DU-145): 1380 nM (inactive) | GI50 (NCI/ADR-RES): 525 nM (active) | GI50 (HT-29): 253 nM (active) | GI50 (NCI-H23): 1570 nM (inactive) | GI50 (CAKI-1): 209 nM (active) | GI50 (LOX IMVI): 275 nM (active) | GI50 (K562): 392 nM (active)

c1cncc(C(Nc2cccc3cccnc23)Nc2cccc3cccnc23)c1
GI50 (HCT-15): > 100000 nM | GI50 (HL-60): 36300 nM (inactive) | GI50 (HOP-92): > 100000 nM (inactive) | GI50 (SNB-19): > 100000 nM (inactive) | GI50 (786-0): > 100000 nM (inactive) | GI50 (MDA-N): > 100000 nM (inactive) | GI50 (IGROV-1): > 100000 nM (inactive) | GI50 (KM12): > 100000 nM (inactive) | GI50 (SF-268): 50500 nM (inactive) | GI50 (COLO 205): > 100000 nM (inactive) | GI50 (HOP-62): > 100000 nM (inactive) | GI50 (DU-145): > 100000 nM (inactive) | GI50 (NCI/ADR-RES): > 100000 nM (inactive) | GI50 (HT-29): > 100000 nM (inactive) | GI50 (NCI-H23): > 100000 nM (inactive) | GI50 (CAKI-1): 53000 nM (inactive) | GI50 (LOX IMVI): > 100000 nM (inactive) | GI50 (K562): > 100000 nM (inactive)
